{"source": "patent US7071206B2", "about": "“Agents for treating neurodegenerative disorders” (Medivation, Inc., priority 1995, dated 2006)", "test_system": "patients suffering from Alzheimer's disease", "assay": "Clinical trial of dimebon tablets, inventors' scale (E. E. Bukatina et al.; 0 = absence of a symptom, 4 = greatest manifestation)", "type": "in vivo, human", "protocol": "The test was carried out under the direct supervision by two of the inventors, namely E. E. Bukatina and V. Grigorieva, in 14 patients who agreed to take part in the tests, 13 of whom lived in a boarding house for senile persons and one patient lived with their family.\nAlzheimer's disease was diagnosed on the basis of criteria ICD-10 NINCDS ADRDA.\nDimebon in the form of tablets (comprising 10 mg of dimebon, 30 mg of lactose, 5 mg of magnesium stearate was prescribed for oral administration in a dose of 0.02 g three to times a day. The patients living in the boarding house received dimebon for 58 days. A patient (observation 14) who was under outpatient observation continued taking the agent for a month after the completion of the tests.\nBefore the treatment with dimebon, and at 4 and 8 weeks after treatment the patients were examined according to Hazegawa's scale and the inventors' scale (“Social and Clinical Psychiatry”, 1992, No.4, pp.29–37) which includes the following indexes: (1) orientation in locality, time, immediate surroundings and one's own personality; (2) orientation in space; (3) memory for the past; (4) memory for the present; (5) “life in the past”; (6) (a) articulation, (b) difficulty in finding words, and distortion of words; (c) naming of objects; (d) following instructions; (7) concentration (of attention); (8) an affective sphere; (a) high spirits, (b) low spirits; (9) delirium; (10) hearing hallucinations; (11) visual hallucinations; (12) senile or senile-like confusion (when motion anxiety is accompanied by the revival of the past experience); (13) irritability; (14) anxiety; (15) asthenia; (16) headaches; (17) dizziness; (18) tearfulness; (19) spontaneous activity; (20) elementary self-service; and (21 control of sphincters.\nAccording to the Hazegawa's scale, the 0 score indicates the poorest result; on the contrary, according to the inventors' scale, the 0 score indicates the absence of a symptom 4 score indicates the greatest manifestation thereof. […] Before the therapy was started, the patients had been independently examined by two doctors who used the inventors' scale. The examination during the treatment was carried out by the doctors using both the scales. The evaluation according to all the inventors' scale points during all the tests and their variations during the treatment with dimebon are given in the Appendix.\nAccording to the inventors' scale, the degree of the disturbance if the cognitive functions was determined by a sum of evaluations according to the first 5 scale points reflecting the condition of memory, orientation and relation with the reality. The disturbance of speech was dealt with separately and was determined by a sum of evaluations according to items 6b-6d.\nBoth absolute evaluations of the signs under investigation (the evaluation prior to treatment is a mean evaluation of the two examinations) and variations in them were analysed in the course of therapy. In doing so, only those changes that were beyond the range of evaluations obtained in two pre-treatment examinations were taken into consideration.\nThe test results reflected the condition of the patients at the time of the examination. Any changes in the metal state observed in the interval between the tests and disappearing by the moment of examination according to the scale were described in the section “Clinical Observations”.\nThe statistical data processing was carried out by means of Student's t-test and Fisher's “Fi” criterion.", "key": {"[1]": {"settings": "after 8 weeks vs two examinations prior to treatment, + improvement, − deterioration"}, "[2]": {"settings": "after 8 weeks, mean of 14 patients"}, "[3]": {"settings": "change at 4 weeks vs K1, K2, per patient, listed as dimebon"}}, "note": "Several values for one entry are separate records, joined by “and”; a condition that tells them apart may be missing. Identical values can stand only once."}
{"molecule": "Cc1ccc2c(c1)c1c(n2CCc2ccc(C)nc2)CCN(C)C1", "note": "[No. 10, 2,8-dimethyl-5-[2-(6-methyl-3-pyridyl)ethyl]-2,3,4,5-tetrahydro-1H-pyrido[4,3-b]indole]", "values": [{"measurement": "Item 20 (elementary self-service): mean value", "setting": "after 4 weeks, mean of 14 patients", "result": "0.07 +/− 0.07 scores"}, {"measurement": "mean score of tearfulness", "setting": "after 8 weeks", "result": "0±0.0"}, {"measurement": "number of patients with signs of aggravation of depression", "setting": "after 8 weeks", "result": "One"}, {"measurement": "tearfulness", "setting": "after 8 weeks", "result": "not a single female patient suffered from tearfulness"}, {"measurement": "Item 1 (orientation in locality, time, immediate surroundings and one's own personality): change during the course of the therapy", "setting": "[1]", "result": "+0.18 +/− 0.08 scores"}, {"measurement": "Item 2 (orientation in space): change during the course of the therapy", "setting": "[1]", "result": "+0.11 +/− 0.07 scores"}, {"measurement": "Item 3 (memory for the past): change during the course of the therapy", "setting": "[1]", "result": "+0.29 +/− 0.1 scores"}, {"measurement": "Item 4 (memory for the present): change during the course of the therapy", "setting": "[1]", "result": "_0.29 +/− 0.08 scores"}, {"measurement": "Item 5 (life in the past): change during the course of the therapy", "setting": "[1]", "result": "_0.29 +/− 0.1 scores"}, {"measurement": "Item 6a (speech): change during the course of the therapy", "setting": "[1]", "result": "+0.14 +/− 0.08 scores"}, {"measurement": "Item 6b (difficulty in finding words, and distortion of words): change during the course of the therapy", "setting": "[1]", "result": "−0.04 +/− 0.03 scores"}, {"measurement": "Item 6g (speech): change during the course of the therapy", "setting": "[1]", "result": "−0.07 +/− 0.18 scores"}, {"measurement": "Item 7 (concentration of attention): change during the course of the therapy", "setting": "[1]", "result": "−0.04 +/− 0.06 scores"}, {"measurement": "Item 8b (low spirits): change during the course of the therapy", "setting": "[1]", "result": "+0.43 +/− 0.2 scores"}, {"measurement": "Item 9 (delirium): change during the course of the therapy", "setting": "[1]", "result": "+0.25 +/− 0.17 scores"}, {"measurement": "Item 13 (irritability): change during the course of the therapy", "setting": "[1]", "result": "+0.36 +/− 0.16 scores"}, {"measurement": "Item 14 (anxiety): change during the course of the therapy", "setting": "[1]", "result": "+0.07 +/− 0.09 scores"}, {"measurement": "Item 15 (asthenia): change during the course of the therapy", "setting": "[1]", "result": "0 +/− 0 scores"}, {"measurement": "Item 16 (headaches): change during the course of the therapy", "setting": "[1]", "result": "+0.21 +/− 0.1 scores"}, {"measurement": "Item 17 (dizziness): change during the course of the therapy", "setting": "[1]", "result": "−0.18 +/− 0.22 scores"}, {"measurement": "Item 18 (tearfulness): change during the course of the therapy", "setting": "[1]", "result": "+0.21 +/− 0.15 scores"}, {"measurement": "Item 19 (spontaneous activity): change during the course of the therapy", "setting": "[1]", "result": "+0.04 +/− 0.11 scores"}, {"measurement": "Item 20 (elementary self-service): change during the course of the therapy", "setting": "[1]", "result": "0 +/− 0.1 scores"}, {"measurement": "Item 1 (orientation in locality, time, immediate surroundings and one's own personality): mean value", "setting": "[2]", "result": "1.57 +/− 0.23 scores"}, {"measurement": "Item 2 (orientation in space): mean value", "setting": "[2]", "result": "0.25 +/− 0.13 scores"}, {"measurement": "Item 3 (memory for the past): mean value", "setting": "[2]", "result": "1.93 +/− 0.24 scores"}, {"measurement": "Item 4 (memory for the present): mean value", "setting": "[2]", "result": "1.86 +/− 0.23 scores"}, {"measurement": "Item 5 (life in the past): mean value", "setting": "[2]", "result": "1.57 +/− 0.27 scores"}, {"measurement": "Item 6a (speech): mean value", "setting": "[2]", "result": "0.54 +/− 0.21 scores"}, {"measurement": "Item 6b (difficulty in finding words, and distortion of words): mean value", "setting": "[2]", "result": "0.39 +/− 0.2 scores"}, {"measurement": "Item 6g (speech): mean value", "setting": "[2]", "result": "0.54 +/− 0.19 scores"}, {"measurement": "Item 7 (concentration of attention): mean value", "setting": "[2]", "result": "1.75 +/− 0.3 scores"}, {"measurement": "Item 8b (low spirits): mean value", "setting": "[2]", "result": "0.46 +/− 0.14 scores"}, {"measurement": "Item 9 (delirium): mean value", "setting": "[2]", "result": "0.5 +/− 0.19 scores"}, {"measurement": "Item 13 (irritability): mean value", "setting": "[2]", "result": "0.14 +/− 0.09 scores"}, {"measurement": "Item 14 (anxiety): mean value", "setting": "[2]", "result": "0.18 +/− 0.1 scores"}, {"measurement": "Item 15 (asthenia): mean value", "setting": "[2]", "result": "0.04 +/− 0.03 scores"}, {"measurement": "Item 16 (headaches): mean value", "setting": "[2]", "result": "0.64 +/− 0.24 scores"}, {"measurement": "Item 17 (dizziness): mean value", "setting": "[2]", "result": "0.68 +/− 0.25 scores"}, {"measurement": "Item 18 (tearfulness): mean value", "setting": "[2]", "result": "0.14 +/− 0.14 scores"}, {"measurement": "Item 19 (spontaneous activity): mean value", "setting": "[2]", "result": "1.18 +/− 0.27 scores"}, {"measurement": "Item 20 (elementary self-service): mean value", "setting": "[2]", "result": "0.14 +/− 0.4 scores"}, {"measurement": "impairments according to the first 5 scale points (cognitive functions)", "setting": "both after 4-week and 8-week treatment", "result": "lack of impairments"}, {"measurement": "20. Elementary self-service, Changes (4 weeks)", "setting": "change at 4 weeks vs K1, K2, per patient", "result": "+1"}, {"measurement": "2. Orientation in space, Changes (4 weeks)", "setting": "[3]", "result": "−0.5"}, {"measurement": "5. Life in the past, Changes (4 weeks)", "setting": "[3]", "result": "+0.5 (2×) and +1"}, {"measurement": "6c. Naming of objects, Changes (4 weeks)", "setting": "[3]", "result": "+0.5 and −1"}, {"measurement": "7. Concentration, Changes (4 weeks)", "setting": "[3]", "result": "+0.5 and −0.5"}, {"measurement": "8b. Lower spirits, Changes (4 weeks)", "setting": "[3]", "result": "+0.5 (3×) and +2 and +1"}, {"measurement": "9. Delirium, Changes (4 weeks)", "setting": "[3]", "result": "+0.5 and +1 and −0.5"}, {"measurement": "13. Irritability, Changes (4 weeks)", "setting": "[3]", "result": "+1.5 and +1 (2×) and +0.5"}, {"measurement": "14. Anxiety, Changes (4 weeks)", "setting": "[3]", "result": "+0.5 and +1 and −1 (2×)"}, {"measurement": "15. Asthenia, Changes (4 weeks)", "setting": "[3]", "result": "−0.5 and −1"}, {"measurement": "16. Headache, Changes (4 weeks)", "setting": "[3]", "result": "+1 (2×) and +2 (2×) and −1.5"}, {"measurement": "17. Dizziness, Changes (4 weeks)", "setting": "[3]", "result": "+1 and −1 and −2"}, {"measurement": "18. Tearfulness, Changes (4 weeks)", "setting": "[3]", "result": "+2 and 0"}, {"measurement": "6d. Performing instructions, Changes (4 weeks)", "setting": "[3]", "result": "−1 and +1 (2×)"}, {"measurement": "1. Orientation in locality and time, Changes (4 weeks)", "setting": "change at 4 weeks vs K1, K2 prior to treatment, + improvement, − deterioration, — no change, per patient, listed as dimebon", "result": "+1 and +0.5"}, {"measurement": "1. Orientation in locality and time, Changes (8 weeks)", "setting": "change at 8 weeks vs K1, K2, + improvement, − deterioration, — no change, per patient, listed as dimebon", "result": "+1 and +0.5 (3×)"}]}
